Key:
Settings in all cases: stereoisomer not certain
[1] = HILIC, Merck SeQuant ZIC-HILIC, 150 × 2.1 mm, 5 µm, 0.75 mL/min, estimated dead time 0.44 min; A: water + 0.1% acetic acid + 10 mM ammonium acetate, pH 4; B: 5% water + 95% acetonitrile + 0.1% acetic acid + 10 mM ammonium acetate, pH 4; gradient (min/%B) 0/95 5/95 20/57 25/57 30/95 40/95
[2] = RP, Waters CORTECS T3, 100 × 2.1 mm, 2.7 µm, 0.2 mL/min, estimated dead time 1.1 min; A: water + 0.1% formic acid, pH 3; B: methanol + 0.1% formic acid, pH 3; gradient (min/%B) 0/0 1/0 6/5 30/100 35/100 35.1/0 40/0
[3] = RP, Waters CORTECS T3, 100 × 2.1 mm, 2.7 µm, 0.3 mL/min, estimated dead time 0.73 min; A: water + 0.1% formic acid, pH 3; B: methanol + 0.1% formic acid, pH 3; gradient (min/%B) 0/0 5/0 25/100 30/100 30.1/0 35/0
[4] = RP, Waters CORTECS T3, 100 × 2.1 mm, 2.7 µm, 0.2 mL/min, estimated dead time 1.1 min; A: water + 0.1% formic acid, pH 3; B: methanol + 0.1% formic acid, pH 3; gradient (min/%B) 0/5 5/5 25/95 25.1/100 35/100 35.1/5 45/5
[5] = RP, Waters CORTECS T3, 100 × 2.1 mm, 2.7 µm, 0.3 mL/min, estimated dead time 0.73 min; A: water + 0.1% formic acid, pH 3; B: methanol + 0.1% formic acid, pH 3; gradient (min/%B) 0/0 1/0 6/5 30/100 35/100 35.1/0 40/0
[6] = HILIC, Waters XBridge BEH Amide, 100 × 2.1 mm, 2.5 µm, 0.5 mL/min, estimated dead time 0.44 min; A: water + 0.1% acetic acid + 10 mM ammonium acetate, pH 4; B: 5% water + 95% acetonitrile + 0.1% acetic acid + 10 mM ammonium acetate, pH 4; gradient (min/%B) 0/95 5/95 20/57 25/57 30/95 40/95
[7] = RP, Waters ACQUITY UPLC BEH C18, 100 × 2.1 mm, 1.7 µm, 0.1 mL/min, estimated dead time 2.2 min; A: water + 0.1% formic acid, pH 3; B: methanol + 0.1% formic acid, pH 3; gradient (min/%B) 0/5 5/5 25/95 25.1/100 35/100 35.1/5 45/5
[8] = HILIC, Merck SeQuant ZIC-HILIC, 150 × 2.1 mm, 5 µm, 0.75 mL/min, estimated dead time 0.44 min; A: water + 10 mM ammonium formate, pH 6; B: 5% water + 95% acetonitrile + 10 mM ammonium formate, pH 6; gradient (min/%B) 0/95 5/95 20/57 25/57 30/95 40/95
[9] = RP, Waters ACQUITY UPLC BEH C18, 100 × 2.1 mm, 1.7 µm, 0.2 mL/min, estimated dead time 1.1 min; A: water + 0.025% formic acid + 20 mM ammonium acetate + 0.055% ammonium hydroxide, pH 7; B: methanol; gradient (min/%B) 0/5 5/5 25/100 30/100 30.1/5 35/5
[10] = RP, Waters ACQUITY UPLC BEH C18, 100 × 2.1 mm, 1.7 µm, 0.1 mL/min, estimated dead time 2.2 min; A: water + 0.1% formic acid, pH 3; B: methanol + 0.1% formic acid, pH 3; gradient (min/%B) 0/5 5/5 25/95 25.1/100 35/100 35.1/5 45/5; remark: listed apart in the source
[11] = RP, Waters CORTECS T3, 100 × 2.1 mm, 2.7 µm, 0.2 mL/min, estimated dead time 1.1 min; A: water + 0.045% formic acid + 0.11% ammonium hydroxide, pH 7; B: methanol; gradient (min/%B) 0/5 5/5 25/95 25.1/100 35/100 35.1/5 45/5
[12] = HILIC, Thermo Scientific Accucore HILIC, 100 × 2.1 mm, 2.6 µm, 0.5 mL/min, estimated dead time 0.44 min; A: water + 0.1% formic acid + 10 mM ammonium formate, pH 3; B: 5% water + 95% acetonitrile + 0.1% formic acid + 10 mM ammonium formate, pH 3; gradient (min/%B) 0/95 5/95 20/57 25/57 30/95 40/95
[13] = RP, Waters ACQUITY UPLC BEH C18, 100 × 2.1 mm, 1.7 µm, 0.2 mL/min, estimated dead time 1.1 min; A: water + 0.025% formic acid + 20 mM ammonium acetate + 0.055% ammonium hydroxide, pH 7; B: methanol; gradient (min/%B) 0/5 5/5 25/100 30/100 30.1/5 35/5; remark: listed apart in the source
[14] = RP, Waters ACQUITY UPLC BEH C18, 100 × 2.1 mm, 1.7 µm, 0.2 mL/min, estimated dead time 1.1 min; A: water + 0.1% formic acid, pH 3; B: methanol + 0.1% formic acid, pH 3; gradient (min/%B) 0/5 5/5 25/100 30/100 30.1/5 35/5
[15] = RP, Waters ACQUITY UPLC BEH C18, 100 × 2.1 mm, 1.7 µm, 0.1 mL/min, estimated dead time 2.2 min; A: water + 0.1% formic acid, pH 3; B: methanol + 0.1% formic acid, pH 3; gradient (min/%B) 0/5 5/5 25/95 25.1/100 35/100 35.1/5 45/5; remark: listed apart in the source
[16] = RP, Waters CORTECS T3, 100 × 2.1 mm, 2.7 µm, 0.25 mL/min, estimated dead time 0.88 min; A: water + 0.1% formic acid, pH 3; B: methanol + 0.1% formic acid, pH 3; gradient (min/%B) 0/5 5/5 25/95 25.1/100 35/100 35.1/5 45/5
[17] = RP, Waters CORTECS T3, 100 × 2.1 mm, 2.7 µm, 0.15 mL/min, estimated dead time 1.5 min; A: water + 0.1% formic acid, pH 3; B: methanol + 0.1% formic acid, pH 3; gradient (min/%B) 0/5 5/5 25/95 25.1/100 35/100 35.1/5 45/5
[18] = RP, Thermo Scientific Hypercarb, 150 × 2.1 mm, 5 µm, 0.1 mL/min, estimated dead time 3.3 min; A: water + 0.1% formic acid, pH 3; B: methanol + 0.1% formic acid, pH 3; gradient (min/%B) 0/5 5/5 20/100 35/100 35.1/5 45/5

LC retention time [1]: 1.25 min
LC retention time [2]: 3.64 min
LC retention time [3]: 2.61 min
LC retention time [4]: 6.98 min
LC retention time [5]: 2.6 min
LC retention time [6]: 1.59 min
LC retention time [7]: 2.69 min
LC retention time [8]: 1.31 min
LC retention time [9]: 3.15 min
LC retention time [10]: 4.62 min
LC retention time [11]: 3.15 min
LC retention time [12]: 1.41 min
LC retention time [13]: 1.74 min
LC retention time [14]: 2.36 min
LC retention time [15]: 4.65 min
LC retention time [16]: 1.99 min
LC retention time [17]: 3.26 min
LC retention time [18]: 35.3 min
Compound: c1ncc2[nH]cnc2n1 [PURINE]
